Entries after “also recorded” stand apart in the source; their conditions may differ.
Key:
[1] = test system: heterogeneous PCa cell population; set-up: method as in Peña‐Hernández et al., [2021]; conditions: ref Peña‐Hernández et al., [2021]; cited from earlier work
PC3 spheroids = assay: Spheroid growth (3D), PC3; type: cell-based
Protocol: Cell cultures, proliferation assay and spheroid gro wth […]
streptomycin and 2 m M L-glutamine. All cells were regularly tested for mycoplasma contamination. […]
Spheroids were obtained by plating PC3 and 22Rv1 cells in low -adhesion round bottom 96 -well […]
(§1) After seeding, the cells were centrifuged for 10 min at 1200 x g at 4°C. Spheroids were given 48 hours to form after seeding before adding the treatment or the carrier (0.1% DMSO). Medium supplemented with treatment/carrier was changed every 48 hours, for a total of 32 days for 22Rv1 and 16 days for PC3. Each spheroid was imaged in brightfield every day or every other day (after day 20), using a Leica DM IL microscope […]
(§2) equipped with a Leica DFC450C digital camera. The area of each spheroid was measured using ImageJ and the average area for each condition was calculated. The growth rate was analysed using the segmental linear regression algorithm of GraphPad Prism. The appropriateness of the model was evaluated by considering the R square values and the Replicates test (Suppl. Table 6). […]

22Rv1 spheroids = assay: Spheroid growth (3D), 22Rv1; type: cell-based
Protocol: Cell cultures, proliferation assay and spheroid gro wth
PC3 and 22Rv1 cells were cultured in RPMI 1640 medium containing 10% FBS, 1% penicillin-streptomycin and 2 m M L-glutamine. All cells were regularly tested for mycoplasma contamination. […]
as §1, with “Spheroids were obtained by plating PC3 and 22Rv1 cells in low -adhesion round bottom 96 -well plates. For 22Rv1, 2500 cells/well were seeded in 200 µl RPMI 1640; for PC3, 250 cells/well were seeded in 200 µl RPMI 1640 supplemented with 1.5% Matrigel. After” for “After”
as §2

PCa cancer stem cells = test system: PCa cancer stem cells; set-up: method as in Peña‐Hernández et al., [2021]; conditions: ref Peña‐Hernández et al., [2021]; cited from earlier work
[2] = 3D setting, GSK2801 25 μM, BAZ2‐ICR 25 μM, BI9564 20 μM

Cn1cc(CCn2cnc(-c3cnn(C)c3)c2-c2ccc(C#N)cc2)cn1 [BAZ2‐ICR]
proliferation of heterogeneous PCa cell population [1]: does not affect the proliferation | effect on growth of PC3 spheroids (PC3 spheroids; [2]): did not significantly affect PC3 spheroids | slope2 (segmental linear regression of spheroid growth) (PC3 spheroids; PC3 spheroids, 25 µM, after X0 = day 6): 77288 | slope1 (segmental linear regression of spheroid growth) (PC3 spheroids; PC3 spheroids, 25 µM, before X0 = day 6): 62282 | effect on growth of 22Rv1 spheroids (22Rv1 spheroids; [2]): similarly affect the growth of 22Rv1 cells; also recorded: interestingly impacting those deriving from 22Rv1 cells | slope2 (segmental linear regression of spheroid growth) (22Rv1 spheroids; 22Rv1 spheroids, 25 µM, after X0 = day 9): 10618 | slope1 (segmental linear regression of spheroid growth) (22Rv1 spheroids; 22Rv1 spheroids, 25 µM, before X0 = day 9): 17642 | efficacy on PCa cancer stem cells (PCa cancer stem cells): effective on PCa cancer stem cells

Source: publication PMC10464297, “Reevaluation of bromodomain ligands targeting BAZ2A” (Protein Science : A Publication of the Protein Society, 2023)
